Experimental data: patent publication US20100222282A1, “METHOD OF DIAGNOSIS AND METHOD OF TREATMENT” (ENTRESS AB, priority 2006, published 2010)

Columns and labels:
[1] = rats of the experimental groups
Source text: (§1) The aim of this experiment was to study the relationship between the blood level of AKG and survival of elderly rats. Forty Sprague-Dawley rats randomly chosen (2-3 years old) from the Department of Cell & Organisms Biology in Lund University were used in the experiment. The rats were divided into four groups, 10 rats each, two control groups and two experiment groups. […] The mixtures were titrated with 0.01 M NaOH to correct the pH.
(§2) Blood samples were taken at the beginning of the experiment from all rats and blood AKG levels were estimated. Experimental time was 8 weeks and parameters as AKG blood levels and survival were monitored.

[2] = test system: Sprague-Dawley rats (2-3 years old); details: experimental groups, 8 weeks
Source text: as §1, §2

O=C([O-])CCC(=O)C(=O)[O-].[Na+].[Na+] [Na2AKG * 2H2O, sodium alpha-ketoglutarate]
Blood levels of AKG after oral feeding [1]: over 0.5 μg/ml
Survival of rats with initially low blood AKG (under 0.1 μg/ml) [2]: did survive the whole experiment
